Results as given in patent US20240336574A1 (LATIGO BIOTHERAPEUTICS, INC., priority 2021, published 2024).
Where two headings read alike, the source gives them in different places.

Target: T1, recombinant human NaV1.8 stably transfected HEK cells (Homo sapiens, UniProt Q9Y5Y9)
T1 construct: expressed in transfected cells; host or cells: HEK cells, stably transfected
Experiment: Compound profiling on NaV1.8, human NaV1.8 cell line, SyncroPatch384PE automated patch clamp assay (Example 102, first set of compounds, Table 16)
Assay type: cell-based
Conditions: human NaV1.8 HEK cells, Table 16 (first set of compounds)
Summary of the method: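 Automated whole-cell patch clamp on HEK cells precultured at 30 °C one day before recording; CsF-based internal, 140 mM NaCl external. 10-point curve, 20–0.001 μM final, 0.1% DMSO, 5 min exposure. IC50 for resting (P1, −120 mV hold) and inactivated (P2, after 10 s at −40 mV) block, normalized to 250 μM tetracaine and DMSO.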

[1] = inactivated state block (P2 measurement), read-out: P2IC50
[2] = resting state block (P1 measurement), read-out: P1IC50

T1 sequence (Q9Y5Y9 whole entry): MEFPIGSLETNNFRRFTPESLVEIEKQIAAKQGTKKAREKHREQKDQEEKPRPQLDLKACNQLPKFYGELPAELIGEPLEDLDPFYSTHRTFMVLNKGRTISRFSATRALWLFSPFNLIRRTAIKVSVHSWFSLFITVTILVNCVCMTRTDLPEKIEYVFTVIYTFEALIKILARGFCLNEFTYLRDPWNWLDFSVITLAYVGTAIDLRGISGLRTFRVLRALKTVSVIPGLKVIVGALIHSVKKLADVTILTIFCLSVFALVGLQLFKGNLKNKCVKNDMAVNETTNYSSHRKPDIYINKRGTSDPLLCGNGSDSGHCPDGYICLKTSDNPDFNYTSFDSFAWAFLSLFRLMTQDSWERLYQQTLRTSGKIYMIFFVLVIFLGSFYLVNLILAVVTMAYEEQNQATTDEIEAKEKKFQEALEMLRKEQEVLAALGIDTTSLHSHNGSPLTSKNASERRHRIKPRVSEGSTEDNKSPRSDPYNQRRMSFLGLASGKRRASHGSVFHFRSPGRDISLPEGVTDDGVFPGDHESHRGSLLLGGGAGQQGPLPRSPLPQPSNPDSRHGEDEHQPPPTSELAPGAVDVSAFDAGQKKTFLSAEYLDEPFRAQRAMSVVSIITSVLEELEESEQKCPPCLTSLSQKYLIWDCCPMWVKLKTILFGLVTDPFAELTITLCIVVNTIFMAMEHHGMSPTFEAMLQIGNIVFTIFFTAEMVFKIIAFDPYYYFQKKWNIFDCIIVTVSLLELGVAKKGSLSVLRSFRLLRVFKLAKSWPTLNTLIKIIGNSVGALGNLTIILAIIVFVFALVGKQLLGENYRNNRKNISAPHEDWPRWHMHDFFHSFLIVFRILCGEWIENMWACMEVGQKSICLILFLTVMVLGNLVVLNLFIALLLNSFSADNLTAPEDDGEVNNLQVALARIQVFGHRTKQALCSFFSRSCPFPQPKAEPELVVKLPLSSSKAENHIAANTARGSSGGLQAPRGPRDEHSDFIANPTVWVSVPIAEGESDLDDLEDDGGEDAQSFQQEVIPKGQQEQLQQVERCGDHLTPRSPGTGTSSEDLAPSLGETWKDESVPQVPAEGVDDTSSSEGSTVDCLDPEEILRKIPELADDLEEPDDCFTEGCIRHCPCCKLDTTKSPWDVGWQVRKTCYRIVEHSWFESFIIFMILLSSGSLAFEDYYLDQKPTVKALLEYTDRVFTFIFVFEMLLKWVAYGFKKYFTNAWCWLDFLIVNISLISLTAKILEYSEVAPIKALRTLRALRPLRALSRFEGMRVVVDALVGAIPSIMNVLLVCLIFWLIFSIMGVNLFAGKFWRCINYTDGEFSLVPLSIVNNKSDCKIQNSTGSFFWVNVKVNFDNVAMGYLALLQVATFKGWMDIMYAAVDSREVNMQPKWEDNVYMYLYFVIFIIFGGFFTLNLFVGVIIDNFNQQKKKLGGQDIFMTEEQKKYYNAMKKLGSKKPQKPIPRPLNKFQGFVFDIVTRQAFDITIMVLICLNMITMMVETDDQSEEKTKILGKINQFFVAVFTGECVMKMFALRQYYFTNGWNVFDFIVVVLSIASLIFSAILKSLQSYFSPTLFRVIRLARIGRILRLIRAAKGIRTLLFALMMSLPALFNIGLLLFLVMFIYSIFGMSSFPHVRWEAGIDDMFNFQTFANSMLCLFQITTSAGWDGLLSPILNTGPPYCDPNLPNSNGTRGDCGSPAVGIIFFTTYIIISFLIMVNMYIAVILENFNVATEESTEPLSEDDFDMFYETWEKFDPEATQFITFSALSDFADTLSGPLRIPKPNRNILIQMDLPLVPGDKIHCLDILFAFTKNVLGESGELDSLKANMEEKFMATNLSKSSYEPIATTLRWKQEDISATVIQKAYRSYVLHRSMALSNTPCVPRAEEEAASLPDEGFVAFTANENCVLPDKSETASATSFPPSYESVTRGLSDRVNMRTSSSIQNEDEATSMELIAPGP

Compound: COc1cc(C#N)ccc1Oc1nnc(-c2ccc(C#N)cc2)c(C)c1C(=O)Nc1cccc(S(C)(=N)=O)c1 (centres unmarked) [Compound 1446, 3-(4-cyano-2-methoxy-phenoxy)-6-(4-cyanophenyl)-5-methyl-N-[3-(methylsulfonimidoyl)phenyl]pyridazine-4-carboxamide]
- IC50 [1]: 20 to 40 nM
- IC50 [2]: 20 to 40 nM

Compound: Cc1c(C(F)(F)F)nnc(Oc2ccc(OC(F)F)c(F)c2F)c1C(=O)Nc1cccc(S(C)(=N)=O)c1 (single isomer, unassigned) [Compound 1511, 3-[4-(difluoromethoxy)-2,3-difluorophenoxy]-N-{3-[imino(methyl)oxo-λ^6-sulfanyl]phenyl}-5-methyl-6-(trifluoromethyl)pyridazine-4-carboxamide]
- IC50 [1]: ≤ 20 nM
- IC50 [2]: ≤ 20 nM

Compound: CS(=N)(=O)c1cccc(NC(=O)c2cc(C(F)(F)F)cnc2OC2CC3C(C2)C3(F)F)c1 (centres unmarked) [Compound 1672]
- IC50 [1]: 200 to 500 nM
- IC50 [2]: 200 to 500 nM

Compound: COC(=O)c1cccc(NC(=O)c2c(Oc3ccc(C#N)cc3OC)nnc(C(F)(F)F)c2C)c1 [Compound 1546, methyl 3-[[3-(4-cyano-2-methoxy-phenoxy)-5-methyl-6-(trifluoromethyl)pyridazine-4-carbonyl]amino]benzoate]
- IC50 [1]: 40 to 200 nM
- IC50 [2]: 40 to 200 nM

Compound: Cc1c(C(F)(F)F)nnc(Oc2ccc(OC(C)C)c(F)c2F)c1C(=O)Nc1ccnnc1 [Compound 1412]
- IC50 [1]: ≤ 20 nM
- IC50 [2]: ≤ 20 nM

Compound: CS(=O)(=O)c1cccc(NC(=O)c2cc(C(F)(F)F)cnc2Oc2ccc(OC(F)(F)F)cc2F)c1 [Compound 1661]
- IC50 [1]: ≤ 20 nM
- IC50 [2]: ≤ 20 nM

Compound: COc1cc(C#N)ccc1Oc1nnc(C(F)(F)F)c(C)c1C(=O)Nc1cccc([S@](C)(=N)=O)c1 (single isomer, unassigned) [Compound 1480]
- IC50 [1]: ≤ 20 nM
- IC50 [2]: ≤ 20 nM

Compound: Cc1c(C(F)(F)F)nnc(Oc2ccc(OC3CCC3)c(F)c2F)c1C(=O)Nc1cccc(S(C)(=O)=O)c1 [Compound 1426]
- IC50 [1]: ≤ 20 nM
- IC50 [2]: ≤ 20 nM

Compound: CS(=N)(=O)c1cccc(NC(=O)c2cc(C(F)(F)F)cnc2OC23CC(C(F)(F)F)(C2)C3)c1 (centres unmarked) [Compound 1633]
- IC50 [1]: 200 to 500 nM
- IC50 [2]: 40 to 200 nM

Compound: CC(C#N)Oc1cc(F)c(Oc2ncc(C(F)(F)F)cc2C(=O)Nc2ccc(C(N)=O)cc2)cc1F (centres unmarked) [Compound 1688]
- IC50 [1]: 200 to 500 nM
- IC50 [2]: 200 to 500 nM

Compound: CS(=O)(=O)c1cccc(NC(=O)c2cc(C(F)(F)F)cnc2OCC2CCC2(F)F)c1 (centres unmarked) [Compound 1605]
- IC50 [1]: 200 to 500 nM
- IC50 [2]: 200 to 500 nM

Compound: COc1cc(C#N)ccc1Oc1nnc(-c2ccc(C)nc2)c(C)c1C(=O)Nc1cccc(S(C)(=N)=O)c1 (centres unmarked) [Compound 1455, 3-(4-cyano-2-methoxy-phenoxy)-5-methyl-6-(6-methyl-3-pyridyl)-N-[3-(methylsulfonimidoyl)phenyl]pyridazine-4-carboxamide]
- IC50 [1]: 200 to 500 nM
- IC50 [2]: 200 to 500 nM

Compound: COc1cc(F)c(Oc2ncc(C(F)(F)F)cc2C(=O)Nc2cccc(S(C)(=N)=O)c2)cc1F (centres unmarked) [Compound 1637]
- IC50 [1]: 200 to 500 nM
- IC50 [2]: 200 to 500 nM

Compound: COc1ncc(Oc2ncc(C(F)(F)F)cc2C(=O)Nc2cccc(C(N)=O)c2)cc1F [Compound 1698]
- IC50 [1]: 200 to 500 nM
- IC50 [2]: 200 to 500 nM

Compound: Cc1c(Oc2ncc(C(F)(F)F)cc2C(=O)Nc2cccc(S(C)(=N)=O)c2)ccc(OC(F)(F)F)c1F (single isomer, unassigned) [Compound 1714]
- IC50 [1]: ≤ 20 nM
- IC50 [2]: ≤ 20 nM

Compound: COc1cc(C#N)ccc1Oc1nnc(-c2ncco2)c(C)c1C(=O)Nc1cccc(S(C)(=N)=O)c1 (centres unmarked) [Compound 1462, 3-(4-cyano-2-methoxy-phenoxy)-5-methyl-N-[3-(methylsulfonimidoyl)phenyl]-6-oxazol-2-yl-pyridazine-4-carboxamide; formic acid]
- IC50 [1]: 200 to 500 nM
- IC50 [2]: 200 to 500 nM

Compound: COc1cc(C#N)ccc1Oc1nnc(C(F)(F)F)c(C)c1C(=O)Nc1cccc(C(=O)NS(C)(=O)=O)c1 [Compound 1542, 3-(4-cyano-2-methoxy-phenoxy)-5-methyl-N-[3-(methylsulfonylcarbamoyl)phenyl]-6-(trifluoromethyl)pyridazine-4-carboxamide]
- IC50 [1]: 200 to 500 nM
- IC50 [2]: 200 to 500 nM

Compound: COCCNC(=O)c1cccc(NC(=O)c2c(Oc3ccc(C#N)cc3OC)nnc(C(F)(F)F)c2C)c1 [Compound 1443, 3-(4-cyano-2-methoxy-phenoxy)-N-[3-(2-methoxyethylcarbamoyl)phenyl]-5-methyl-6-(trifluoromethyl)pyridazine-4-carboxamide]
- IC50 [1]: 200 to 500 nM
- IC50 [2]: 200 to 500 nM

Compound: Cc1cc(F)ccc1Oc1nnc(C(F)(F)F)c(C)c1C(=O)Nc1ccnc(C(N)=O)c1 [Compound 1408]
- IC50 [1]: 40 to 200 nM
- IC50 [2]: 40 to 200 nM

Compound: Cc1cc(F)ccc1Oc1nnc(C(F)(F)F)c(-c2cnn(C)c2)c1C(=O)Nc1cccc([S@@](C)(=N)=O)c1 [Compound 1521, (S)-3-(4-fluoro-2-methylphenoxy)-5-(1-methyl-1H-pyrazol-4-yl)-N-(3-(S-methylsulfonimidoyl)phenyl)-6-(trifluoromethyl)pyridazine-4-carboxamide]
- IC50 [1]: 200 to 500 nM
- IC50 [2]: 200 to 500 nM

Compound: Cc1cc(F)ccc1Oc1nnc(C2CC2)c(C)c1C(=O)Nc1cccc(S(C)(=N)=O)c1 (centres unmarked) [Compound 1433, 6-cyclopropyl-3-(4-fluoro-2-methyl-phenoxy)-5-methyl-N-[3-(methylsulfonimidoyl)phenyl]pyridazine-4-carboxamide]
- IC50 [1]: 40 to 200 nM
- IC50 [2]: 40 to 200 nM

Compound: COc1cc(C#N)ccc1Oc1nnc(C2=CCOC2)c(C)c1C(=O)Nc1cccc(S(C)(=N)=O)c1 (centres unmarked) [Compound 1556, 3-(4-cyano-2-methoxy-phenoxy)-6-(2,5-dihydrofuran-3-yl)-5-methyl-N-[3-(methylsulfonimidoyl)phenyl]pyridazine-4-carboxamide]
- IC50 [1]: 40 to 200 nM
- IC50 [2]: 40 to 200 nM

Compound: Cc1cc(C#N)ccc1Oc1nnc(C(F)(F)F)c(C)c1C(=O)Nc1cccc([S@@](C)(=N)=O)c1 [Compound 1525, 3-(4-cyano-2-methylphenoxy)-N-{3-[(S)-imino(methyl)oxo-λ^6-sulfanyl]phenyl}-5-methyl-6-(trifluoromethyl)pyridazine-4-carboxamide]
- IC50 [1]: ≤ 20 nM
- IC50 [2]: ≤ 20 nM

Compound: COc1cc(C#N)ccc1Oc1nnc(C(F)(F)F)c(C)c1C(=O)Nc1cccc([S@@](C)(=N)=O)c1 (single isomer, unassigned) [Compound 1479]
- IC50 [1]: ≤ 20 nM
- IC50 [2]: ≤ 20 nM

Compound: Cc1cc(F)ccc1Oc1nnc(C(F)(F)F)c(N2CCCCC2)c1C(=O)Nc1cccc([S@@](C)(=N)=O)c1 [Compound 1732, (S)-3-(4-fluoro-2-methylphenoxy)-N-(3-(S-methylsulfonimidoyl)phenyl)-5-(piperidin-1-yl)-6-(trifluoromethyl)pyridazine-4-carboxamide]
- IC50 [1]: 200 to 500 nM
- IC50 [2]: 200 to 500 nM

Compound: Cc1c(C(F)(F)F)nnc(Oc2ccc(OC(F)(F)F)cc2F)c1C(=O)Nc1cccc(S(C)(=O)=O)c1 [Compound 1467, 3-[2-fluoro-4-(trifluoromethoxy)phenoxy]-N-(3-methanesulfonylphenyl)-5-methyl-6-(trifluoromethyl)pyridazine-4-carboxamide]
- IC50 [1]: ≤ 20 nM
- IC50 [2]: ≤ 20 nM

Compound: Cc1c(C(F)(F)F)nnc(Oc2ccc(C(N)=O)cc2)c1C(=O)Nc1cccc(S(C)(=N)=O)c1 (centres unmarked) [Compound 1513, 3-(4-carbamoylphenoxy)-N-{3-[imino(methyl)oxo-λ^6-sulfanyl]phenyl}-5-methyl-6-(trifluoromethyl)pyridazine-4-carboxamide]
- IC50 [1]: 200 to 500 nM
- IC50 [2]: 200 to 500 nM

Compound: COc1c(Oc2nnc3c(c2C(=O)Nc2cccc(S(C)(=N)=O)c2)CCC3)ccc(F)c1F (centres unmarked) [Compound 1516, 3-(3,4-difluoro-2-methoxyphenoxy)-N-{3-[imino(methyl)oxo-λ^6-sulfanyl]phenyl}-5H,6H,7H-cyclopenta[c]pyridazine-4-carboxamide]
- IC50 [1]: 200 to 500 nM
- IC50 [2]: 200 to 500 nM

Compound: Cc1c(Oc2nnc(C(F)(F)F)c(C)c2C(=O)Nc2cccc(S(C)(=N)=O)c2)ccc(Cl)c1F (centres unmarked) [Compound 1486, 3-(4-chloro-3-fluoro-2-methyl-phenoxy)-5-methyl-N-[3-(methylsulfonimidoyl)phenyl]-6-(trifluoromethyl)pyridazine-4-carboxamide]
- IC50 [1]: ≤ 20 nM
- IC50 [2]: ≤ 20 nM

Compound: COc1cc(C#N)ccc1Oc1nnc(-c2ccc(C(F)F)cc2)c(C)c1C(=O)Nc1cccc(S(C)(=N)=O)c1 (centres unmarked) [Compound 1453, 3-(4-cyano-2-methoxy-phenoxy)-6-[4-(difluoromethyl)phenyl]-5-methyl-N-[3-(methylsulfonimidoyl)phenyl]pyridazine-4-carboxamide]
- IC50 [1]: ≤ 20 nM
- IC50 [2]: ≤ 20 nM

Compound: COc1c(Oc2nnc(C(F)(F)F)c(C)c2C(=O)Nc2cccc(S(C)(=N)=O)c2)ccc(Cl)c1F (centres unmarked) [Compound 1489, 3-(4-chloro-3-fluoro-2-methoxy-phenoxy)-5-methyl-N-[3-(methylsulfonimidoyl)phenyl]-6-(trifluoromethyl)pyridazine-4-carboxamide]
- IC50 [1]: ≤ 20 nM
- IC50 [2]: ≤ 20 nM

Compound: Cc1cc(F)ccc1Oc1ncc(Cl)c(C)c1C(=O)Nc1cccc(S(C)(=N)=O)c1 (centres unmarked) [Compound 1558, 5-chloro-2-(4-fluoro-2-methylphenoxy)-4-methyl-N-(3-(S-methylsulfonimidoyl)phenyl)nicotinamide]
- IC50 [1]: ≤ 20 nM
- IC50 [2]: ≤ 20 nM

Compound: COc1cc(Cl)ccc1Oc1nnc(C(F)(F)F)c(C)c1C(=O)Nc1ccc(C(N)=O)cc1 [Compound 1403]
- IC50 [1]: 20 to 40 nM
- IC50 [2]: 20 to 40 nM

Compound: CC(C)Oc1ccc(Oc2ncc(C(F)(F)F)cc2C(=O)Nc2cccc(C(N)=O)c2)c(F)c1F [Compound 1709]
- IC50 [1]: 20 to 40 nM
- IC50 [2]: ≤ 20 nM
